Experimental data from patent US20160159808A1, “HETEROCYCLIC COMPOUND” (TAKEDA PHARMACEUTICAL COMPANY LIMITED, priority 2013, published 2016).

Columns and labels:
[1] = test system: Male C57BL/6 mice; test: Contextual fear conditioning test, MK-801-induced deficits; assay type: in vivo; conditions: 30 mg/kg p.o. 60 min before test, MK-801 (maleate) 0.08 mg/kg s.c. 30 min before test, n=10, FIG. 1
Protocol: Improvement effect on MK-801 ((5S,10R)-5-methyl-10,11-dihydro-5H-5,10-epiminodibenzo[a,d][7]annulene)-induced disorder in contextual fear conditioning test.
Male C57BL/6 mice were purchased from CLEA Japan, Inc. They were used for an experiment after a habituation period of at least one week after carrying them in the animal experimental facility. They were bred in the animal experimental facility with environment in which 12-hours light-dark cycle was performed, humidity and temperature were controlled, and free water drinking and feeding were allowed. Handling of experimental animals and experimental procedure of this study were approved by the Experimental Animal Ethics Committee of Takeda Pharmaceutical Company Limited.
A test compound was suspended in 0.5% methylcellulose solution at a dose of 30 mg/kg, and orally administered. MK-801 (maleate) (Sigma-Aldrich, St Louis, Mo.) was dissolved in saline at a dose of 0.08 mg/kg, and subcutaneously administered. All drugs were administered to mice at a dose of 10 mL/kg.
Contextual fear conditioning test is widely used as memory and learning test system depending on the hippocampus and amygdala. The improvement effect of test compounds on MK-801-induced deficits was investigated by contextual fear conditioning test. The test compounds and MK-801 (maleate) were administered 60 min and 30 min, respectively, before the test. 0.5% methylcellulose and saline were administered to the control groups 60 min and 30 min, respectively, before the test. 0.5% methylcellulose and MK-801 (maleate) were administered to the vehicle groups 60 min and 30 min, respectively, before the test. […] In the test session on day 2 of the experiment, mice were placed in the same chamber for 7 minutes, and freezing was measured during that period. The freezing was calculated as a percentage of freezing rates during measuring period with use of an automatic analysis software manufactured by the O'Hara & Co., Ltd. All data were shown as the mean+standard error (n=10). […]

[2] = molecular target: T1, human PDE2A3 enzyme (Homo sapiens, UniProt O00408); test: PDE Enzyme Inhibitory Assay (SPA, [3H]cGMP substrate); assay type: biochemical; conditions: compound 1 μM; [3H]cGMP 77 nM; 60 min at room temperature; read-out: inhibitory rate (%) (1 μM)
T1 construct: Human PDE2A3 full-length gene was transduced into Sf9; His-tag; made in house; host or cells: Sf9 insect cells
Protocol: PDE Enzyme Inhibitory Assay Human PDE2A3 full-length gene was transduced into Sf9, and human PDE2A3 enzyme was purified by His-tag affinity column and gel filtration. The enzyme was stored at −70° C. until use. PDE activity was measured using a SPA (Scintillation Proximity Assay) (GE Healthcare). To evaluate the inhibitory activity of the compound, 10 μl of serial diluted compounds were reacted with 20 μl of PDE enzyme in assay buffer (50 mM HEPES-NaOH, 8.3 mM MgCl2, 1.7 mM EGTA, 0.1% BSA (pH 7.4)) for 30 min. at room temperature. Final concentration of DMSO in the reaction solution was 1 percent. Compounds were tested in duplicate in 96-well half-area plates (Corning) or 384-well OptiPlate (PerkinElmer). To start the reaction, 10 μl of substrate [^3H] cGMP (final concentration 77 nM, PerkinElmer) was added to a total volume of 40 μl. After reaction for 60 min at room temperature, 20 μl of 20 mg/mL yttrium SPA beads containing zinc sulfate was added to terminate the PDE reaction. After being settled for further 1 hour, the assay plates were counted in a scintillation counter (PerkinElmer) to allow calculation of inhibition rate. Inhibition rate was calculated on the basis of 0% control wells with enzyme and DMSO, and 100% control wells without enzyme.

T1 sequence (O00408 whole entry): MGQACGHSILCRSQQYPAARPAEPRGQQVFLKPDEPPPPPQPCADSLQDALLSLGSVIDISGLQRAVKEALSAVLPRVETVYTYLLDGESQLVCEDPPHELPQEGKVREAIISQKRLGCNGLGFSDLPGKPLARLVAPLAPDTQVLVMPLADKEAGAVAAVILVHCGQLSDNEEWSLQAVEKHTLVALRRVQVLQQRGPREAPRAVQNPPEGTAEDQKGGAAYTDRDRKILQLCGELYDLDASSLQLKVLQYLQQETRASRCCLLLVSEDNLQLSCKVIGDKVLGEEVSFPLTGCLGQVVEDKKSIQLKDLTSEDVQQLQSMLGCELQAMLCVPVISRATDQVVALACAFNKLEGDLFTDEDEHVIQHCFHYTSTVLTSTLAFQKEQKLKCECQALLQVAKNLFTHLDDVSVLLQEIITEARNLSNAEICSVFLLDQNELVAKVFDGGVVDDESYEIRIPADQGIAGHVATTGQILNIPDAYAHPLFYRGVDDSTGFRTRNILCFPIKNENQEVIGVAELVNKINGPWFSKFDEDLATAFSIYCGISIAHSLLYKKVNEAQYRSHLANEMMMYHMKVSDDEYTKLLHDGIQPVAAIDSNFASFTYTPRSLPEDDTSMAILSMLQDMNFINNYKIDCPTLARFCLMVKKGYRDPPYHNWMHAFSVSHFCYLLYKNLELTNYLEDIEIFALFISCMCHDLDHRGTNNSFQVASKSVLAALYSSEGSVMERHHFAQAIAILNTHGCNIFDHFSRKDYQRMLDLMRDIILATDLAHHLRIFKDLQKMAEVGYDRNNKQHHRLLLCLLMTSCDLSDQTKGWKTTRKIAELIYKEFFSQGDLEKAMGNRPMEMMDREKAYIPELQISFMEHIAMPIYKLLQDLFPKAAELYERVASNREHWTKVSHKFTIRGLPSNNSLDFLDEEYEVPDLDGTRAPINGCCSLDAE

## Cc1cn(-c2nc3c(C(=O)N[C@@H](c4ccc(OC(F)(F)F)cc4)C(C)(C)O)cnn3cc2C)nn1 [Example 80, N-((1S)-2-hydroxy-2-methyl-1-(4-(trifluoromethoxy)phenyl)propyl)-6-methyl-5-(4-methyl-1H-1,2,3-triazol-1-yl)pyrazolo[1,5-a]pyrimidine-3-carboxamide]
[1]
  improvement effect on MK-801-induced deficits in contextual fear conditioning test (freezing): improvement effect on MK-801-induced deficits was shown
[2]
  inhibition at 1 µM: 100%
